Measurements as given in ChEMBL document CHEMBL1201862, “PubChem BioAssay data set” (2004).
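Cultured in 96-well plates, cells were exposed to test compound for 48 hours across five concentrations. GI50 = concentration required for 50% inhibition of growth.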 Calls of active or inactive are those of the source. Cut-off read from the data, not from the text of the source: active = GI50 up to about 1.1 µM and inactive = higher.

What was measured:
Experiment in all cases: inhibition of tumour cell growth, NCI panel, 48 h
A549 = tested on: A549
DU-145 = tested on: DU-145
HCC 2998 = tested on: HCC 2998
HL-60 = tested on: HL-60
IGROV-1 = tested on: IGROV-1
MCF7 = tested on: MCF7
MDA-MB-231 = tested on: MDA-MB-231
NCI-H23 = tested on: NCI-H23
NCI-H460 = tested on: NCI-H460
OVCAR-5 = tested on: OVCAR-5
PC-3 = tested on: PC-3
SF-539 = tested on: SF-539
SK-MEL-5 = tested on: SK-MEL-5
SN12C = tested on: SN12C
T47D = tested on: T47D
TK-10 = tested on: TK-10
U-251 = tested on: U-251
NCI-H522 = tested on: NCI-H522
SK-MEL-2 = tested on: SK-MEL-2
SW-620 = tested on: SW-620

Structure (SMILES)	GI50 (A549)	GI50 (DU-145)	GI50 (HCC 2998)	GI50 (HL-60)	GI50 (IGROV-1)	GI50 (MCF7)	GI50 (MDA-MB-231)	GI50 (NCI-H23)	GI50 (NCI-H460)	GI50 (OVCAR-5)	GI50 (PC-3)	GI50 (SF-539)	GI50 (SK-MEL-5)	GI50 (SN12C)	GI50 (T47D)	GI50 (TK-10)	GI50 (U-251)	GI50 (NCI-H522)	GI50 (SK-MEL-2)	GI50 (SW-620)
c1ccc2nc3c(nc2c1)sc1nc2ccccc2n13	> 100 µM (inactive)	> 100 µM (inactive)	> 100 µM (inactive)	> 100 µM (inactive)	> 100 µM (inactive)	0.933 µM (active)	> 100 µM (inactive)	> 100 µM (inactive)	> 100 µM (inactive)	> 100 µM (inactive)	> 100 µM (inactive)	> 100 µM (inactive)	> 100 µM (inactive)	> 100 µM (inactive)	8 µM (inactive)	> 100 µM (inactive)	> 100 µM (inactive)	–	–	–
O=C1C(c2c(O)[nH]c3ccc([N+](=O)[O-])cc23)=Nc2ccccc21	> 100 µM (inactive)	> 100 µM (inactive)	> 100 µM (inactive)	–	10 µM (inactive)	57.1 µM (inactive)	31.7 µM (inactive)	> 100 µM (inactive)	> 100 µM (inactive)	> 100 µM (inactive)	83.6 µM (inactive)	–	> 100 µM (inactive)	> 100 µM (inactive)	> 100 µM (inactive)	34.6 µM (inactive)	21.2 µM (inactive)	> 100 µM (inactive)	43.5 µM (inactive)	> 100 µM (inactive)
Brc1ccc(-c2ccc(-c3ccc(-c4ccc(Br)s4)s3)s2)s1	> 100 µM (inactive)	> 100 µM (inactive)	> 100 µM (inactive)	> 100 µM (inactive)	> 100 µM (inactive)	> 100 µM (inactive)	> 100 µM (inactive)	> 100 µM (inactive)	> 100 µM (inactive)	> 100 µM (inactive)	> 100 µM (inactive)	> 100 µM (inactive)	> 100 µM (inactive)	> 100 µM (inactive)	> 100 µM (inactive)	> 100 µM (inactive)	> 100 µM (inactive)	–	–	> 100 µM (inactive)
Brc1ccc2c(c1)-c1nc3c(cc1CC2)CCc1ccc(Br)cc1-3	> 100 µM (inactive)	–	> 100 µM (inactive)	–	> 100 µM (inactive)	> 100 µM (inactive)	> 100 µM (inactive)	> 100 µM (inactive)	> 100 µM (inactive)	> 100 µM (inactive)	> 100 µM (inactive)	–	> 100 µM (inactive)	> 100 µM (inactive)	> 100 µM (inactive)	> 100 µM (inactive)	> 100 µM (inactive)	> 100 µM (inactive)	> 100 µM (inactive)	> 100 µM (inactive)
C[N+]1([O-])CCC(O)(C2CC2)CC1 (configuration not stated)	> 100 µM (inactive)	> 100 µM (inactive)	> 100 µM (inactive)	> 100 µM (inactive)	> 100 µM (inactive)	> 100 µM (inactive)	> 100 µM (inactive)	> 100 µM (inactive)	–	> 100 µM (inactive)	> 100 µM (inactive)	–	> 100 µM (inactive)	> 100 µM (inactive)	> 100 µM (inactive)	> 100 µM (inactive)	> 100 µM (inactive)	–	> 100 µM (inactive)	> 100 µM (inactive)
O=c1[nH]cc(NCCCl)c(=O)[nH]1	> 100 µM (inactive)	> 100 µM (inactive)	> 100 µM (inactive)	–	> 100 µM (inactive)	> 100 µM (inactive)	> 100 µM (inactive)	> 100 µM (inactive)	> 100 µM (inactive)	> 100 µM (inactive)	> 100 µM (inactive)	> 100 µM (inactive)	> 100 µM (inactive)	> 100 µM (inactive)	> 100 µM (inactive)	> 100 µM (inactive)	> 100 µM (inactive)	> 100 µM (inactive)	> 100 µM (inactive)	> 100 µM (inactive)
O=C(Nc1ccc(Cl)c(C(F)(F)F)c1)C(=O)c1c(O)c2ccccc2oc1=O	> 100 µM (inactive)	–	> 100 µM (inactive)	> 10 µM (inactive)	> 100 µM (inactive)	> 100 µM (inactive)	> 100 µM (inactive)	> 100 µM (inactive)	> 100 µM (inactive)	> 100 µM (inactive)	> 100 µM (inactive)	> 100 µM (inactive)	> 100 µM (inactive)	> 100 µM (inactive)	> 100 µM (inactive)	> 100 µM (inactive)	> 100 µM (inactive)	> 100 µM (inactive)	> 100 µM (inactive)	> 100 µM (inactive)
CCN(CC)CCCNC(=O)c1cc2cc(NC(=O)c3cc4cc([N+](=O)[O-])ccc4[nH]3)ccc2[nH]1	> 100 µM (inactive)	> 100 µM (inactive)	> 100 µM (inactive)	–	> 100 µM (inactive)	48.1 µM (inactive)	54 µM (inactive)	> 100 µM (inactive)	> 100 µM (inactive)	> 100 µM (inactive)	> 100 µM (inactive)	48.5 µM (inactive)	> 100 µM (inactive)	> 100 µM (inactive)	> 100 µM (inactive)	> 100 µM (inactive)	> 10 µM (inactive)	–	> 100 µM (inactive)	68.2 µM (inactive)
CCOC(=O)C1(Cc2ccccc2)Cc2cc3c(cc2C1=O)CCC3 (configuration not stated)	> 100 µM (inactive)	> 100 µM (inactive)	> 100 µM (inactive)	> 100 µM (inactive)	> 100 µM (inactive)	> 100 µM (inactive)	> 100 µM (inactive)	> 100 µM (inactive)	> 100 µM (inactive)	> 100 µM (inactive)	> 100 µM (inactive)	> 100 µM (inactive)	> 100 µM (inactive)	> 100 µM (inactive)	> 100 µM (inactive)	> 100 µM (inactive)	> 100 µM (inactive)	–	> 100 µM (inactive)	> 100 µM (inactive)
CC(=O)Oc1c2oc3ccc(Cl)cc3c(=O)c2c(O)c2ccsc12	> 100 µM (inactive)	> 100 µM (inactive)	> 100 µM (inactive)	> 100 µM (inactive)	–	> 100 µM (inactive)	28.2 µM (inactive)	> 100 µM (inactive)	> 100 µM (inactive)	> 100 µM (inactive)	> 100 µM (inactive)	> 100 µM (inactive)	> 100 µM (inactive)	> 100 µM (inactive)	0.132 µM (active)	27.6 µM (inactive)	> 100 µM (inactive)	–	> 100 µM (inactive)	> 100 µM (inactive)
O=C(O)Cc1ccc2nc(COC(=O)c3ccccc3)sc2c1	> 100 µM (inactive)	> 100 µM (inactive)	> 100 µM (inactive)	–	> 100 µM (inactive)	> 100 µM (inactive)	> 100 µM (inactive)	> 100 µM (inactive)	> 100 µM (inactive)	> 100 µM (inactive)	> 100 µM (inactive)	–	> 100 µM (inactive)	> 100 µM (inactive)	> 100 µM (inactive)	> 100 µM (inactive)	> 100 µM (inactive)	> 100 µM (inactive)	> 100 µM (inactive)	> 100 µM (inactive)
COc1ccc2c(c1)C(=O)C1(C2)[C@H](c2ccccc2)C2C(=O)c3cc(OC)ccc3C2[C@H]1c1ccccc1 (some centres not stated)	> 100 µM (inactive)	> 100 µM (inactive)	> 100 µM (inactive)	6.21 µM (inactive)	> 100 µM (inactive)	–	> 100 µM (inactive)	15.1 µM (inactive)	> 100 µM (inactive)	> 100 µM (inactive)	16.6 µM (inactive)	> 100 µM (inactive)	> 100 µM (inactive)	> 100 µM (inactive)	> 100 µM (inactive)	> 100 µM (inactive)	> 100 µM (inactive)	> 100 µM (inactive)	–	> 100 µM (inactive)
CC(=O)NC(CCCOC(C)=O)C(=O)NC(CCCOC(C)=O)C(=O)NC(CCCOC(C)=O)C(=O)NC(Cc1ccc([N+](=O)[O-])cc1)C(=O)NCC(=O)OCc1ccccc1 (configuration not stated)	> 100 µM (inactive)	> 100 µM (inactive)	> 100 µM (inactive)	–	> 100 µM (inactive)	> 100 µM (inactive)	> 100 µM (inactive)	> 100 µM (inactive)	> 100 µM (inactive)	> 100 µM (inactive)	> 100 µM (inactive)	> 100 µM (inactive)	> 100 µM (inactive)	> 100 µM (inactive)	> 100 µM (inactive)	> 100 µM (inactive)	> 100 µM (inactive)	> 100 µM (inactive)	> 100 µM (inactive)	> 100 µM (inactive)
O=c1c(-c2ccccc2F)coc2cc(F)ccc12	> 100 µM (inactive)	> 100 µM (inactive)	–	70.6 µM (inactive)	88.3 µM (inactive)	–	> 100 µM (inactive)	63.4 µM (inactive)	> 100 µM (inactive)	> 100 µM (inactive)	> 100 µM (inactive)	91.4 µM (inactive)	> 100 µM (inactive)	> 100 µM (inactive)	> 100 µM (inactive)	> 100 µM (inactive)	97.7 µM (inactive)	37.7 µM (inactive)	> 100 µM (inactive)	> 100 µM (inactive)
N#CC1Nc2ccccc2[C@@H](O)C1O (some centres not stated)	> 100 µM (inactive)	> 100 µM (inactive)	> 100 µM (inactive)	> 100 µM (inactive)	> 100 µM (inactive)	> 100 µM (inactive)	> 100 µM (inactive)	> 100 µM (inactive)	> 100 µM (inactive)	> 100 µM (inactive)	> 100 µM (inactive)	> 100 µM (inactive)	> 100 µM (inactive)	> 100 µM (inactive)	> 100 µM (inactive)	> 100 µM (inactive)	> 100 µM (inactive)	–	> 100 µM (inactive)	> 100 µM (inactive)
